The experiment relates to L1210 leukemia ip in BDF1 mice, survival T/C. The experiment is described as follows: NCI In Vivo Anticancer Drug Screen. Data for tumor model L1210 Leukemia (intraperitoneal) in B6D2F1 (BDF1) mice. Conditions: endpoint: mean survival time, higher = longer survival. The method in brief:
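Value reflects the ratio of survival in compound-treated mice to survival in vehicle-treated controls, with both groups carrying the same transplanted tumor.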

The mark [1] stands for this setting: dose: 100.0 mg/kg/injection, schedule: Q01DX009 (ip), vehicle: saline with Tween-80.
The mark [2] stands for this setting: dose: 200.0 mg/kg/injection, schedule: Q01DX009 (ip), vehicle: saline with Tween-80.
Where [3] appears, read: dose: 400.0 mg/kg/injection, schedule: Q04DX002 (ip), vehicle: saline with Tween-80.
Where [4] appears, read: dose: 200.0 mg/kg/injection, schedule: Q04DX002 (ip), vehicle: Klucel (hydroxypropylcellulose) (HPC).
[5] abbreviates: dose: 400.0 mg/kg/injection, schedule: Q04DX002 (ip), vehicle: Klucel (hydroxypropylcellulose) (HPC).
The mark [6] stands for this setting: dose: 100.0 mg/kg/injection, schedule: Q01DX009 (ip), vehicle: Klucel (hydroxypropylcellulose) (HPC).
[7] abbreviates: dose: 200.0 mg/kg/injection, schedule: Q01DX009 (ip), vehicle: Klucel (hydroxypropylcellulose) (HPC).
Setting [8] is: dose: 400.0 mg/kg/injection, schedule: Q01DX009 (ip), vehicle: Klucel (hydroxypropylcellulose) (HPC).
[9] abbreviates: dose: 100.0 mg/kg/injection, schedule: Q04DX003 (ip), vehicle: saline with Tween-80.
[10] abbreviates: dose: 200.0 mg/kg/injection, schedule: Q04DX003 (ip), vehicle: saline with Tween-80.
The mark [11] stands for this setting: dose: 400.0 mg/kg/injection, schedule: Q04DX003 (ip), vehicle: saline with Tween-80.
Setting [12] is: dose: 100.0 mg/kg/injection, schedule: Q01DX001 (ip), vehicle: carboxymethylcellulose (CMC).
Setting [13] is: dose: 200.0 mg/kg/injection, schedule: Q01DX001 (ip), vehicle: carboxymethylcellulose (CMC).
Setting [14] is: dose: 400.0 mg/kg/injection, schedule: Q01DX001 (ip), vehicle: carboxymethylcellulose (CMC).

Molecules are shown by their SMILES. “And” between values parts separate entries of the source, which are not always exact repeats. Equal entries are not always repeated. Toxic doses and inconclusive results are not listed.

`NC(=S)c1ccc(Cl)cc1`: the T/C under setting [1] is 95 % of control; the T/C (dose: 100.0 mg/kg/injection, schedule: Q04DX002 (ip), vehicle: saline with Tween-80) is 101 % of control; the T/C under setting [2] was 110 % of control; the T/C (dose: 200.0 mg/kg/injection, schedule: Q04DX002 (ip), vehicle: saline with Tween-80) is 97 % of control; the T/C under setting [3] is 97 % of control.

In the case of `CCO/C=C1\SC(=S)N(c2cccc(OC)c2)C1=O`, the T/C (dose: 117.0 mg/kg/injection, schedule: Q01DX009 (ip), vehicle: saline with Tween-80) was 116 % of control; the T/C (dose: 176.0 mg/kg/injection, schedule: Q01DX009 (ip), vehicle: saline with Tween-80) was 108 % of control; the T/C (dose: 264.0 mg/kg/injection, schedule: Q01DX009 (ip), vehicle: saline with Tween-80) was 121 % of control; the T/C (dose: 400.0 mg/kg/injection, schedule: Q01DX009 (ip), vehicle: saline with Tween-80) is 117 % of control.

`Nc1ccn(C2OC(COC3CCCCO3)C(OC3CCCCO3)C2OC2CCCCO2)c(=O)n1` (centres undefined): the T/C (dose: 50.0 mg/kg/injection, schedule: Q01DX009 (ip), vehicle: saline) is 95 % of control; the T/C (dose: 100.0 mg/kg/injection, schedule: Q01DX005 (ip), vehicle: saline) was 110 % of control; the T/C (dose: 100.0 mg/kg/injection, schedule: Q01DX009 (ip), vehicle: saline) was 104 % of control; the T/C (dose: 200.0 mg/kg/injection, schedule: Q01DX005 (ip), vehicle: saline) was 94 % of control; the T/C (dose: 200.0 mg/kg/injection, schedule: Q01DX009 (ip), vehicle: saline) is 101 % of control.

On to `Nc1nc(SCc2ccccc2)c2ncn(CCCl)c2n1`, for which the T/C by setting is: (dose: 5.0 mg/kg/injection, schedule: Q01DX001 (ip), vehicle: carboxymethylcellulose (CMC)) 107 % of control; (dose: 10.0 mg/kg/injection, schedule: Q01DX001 (ip), vehicle: carboxymethylcellulose (CMC)) 107 % of control; (dose: 13.0 mg/kg/injection, schedule: Q01DX Z (ip), vehicle: carboxymethylcellulose (CMC)) 105 % of control; (dose: 20.0 mg/kg/injection, schedule: Q01DX001 (ip), vehicle: carboxymethylcellulose (CMC)) 107 % of control; (dose: 30.0 mg/kg/injection, schedule: Q01DX Z (ip), vehicle: carboxymethylcellulose (CMC)) 150 % of control; (dose: 40.0 mg/kg/injection, schedule: Q01DX001 (ip), vehicle: carboxymethylcellulose (CMC)) 120 % of control. The T/C is, setting by setting: (dose: 67.0 mg/kg/injection, schedule: Q01DX Z (ip), vehicle: carboxymethylcellulose (CMC)) 116 % of control; (dose: 80.0 mg/kg/injection, schedule: Q01DX001 (ip), vehicle: carboxymethylcellulose (CMC)) 122 % of control; (dose: 100.0 mg/kg/injection, schedule: Q01DX Z (ip), vehicle: carboxymethylcellulose (CMC)) 101 % of control; (dose: 150.0 mg/kg/injection, schedule: Q01DX Z (ip), vehicle: carboxymethylcellulose (CMC)) 90 % of control; (dose: 320.0 mg/kg/injection, schedule: Q01DX001 (ip), vehicle: carboxymethylcellulose (CMC)) 116 % of control.

As for `COc1ccccc1-n1c(O)c(N=Nc2ccc(Br)cc2)c(=O)n(-c2ccc(Cl)cc2)c1=S`, the T/C (dose: 100.0 mg/kg/injection, schedule: Q01DX001 (ip), vehicle: Klucel (hydroxypropylcellulose) (HPC)) is 101 % of control and the T/C (dose: 200.0 mg/kg/injection, schedule: Q01DX001 (ip), vehicle: Klucel (hydroxypropylcellulose) (HPC)) was 107 % of control.

With `O=C(O)CO/N=C/c1ccccc1Cl`, the T/C is 98 % of control under setting [4] and 95 % of control under setting [5].

As for `O=C(Nc1ccc(Nc2ccccc2)cc1)Nc1cc(C(F)(F)F)ccc1Cl`, the T/C under setting [6] was 103 % of control, the T/C under setting [7] is 93 % of control and the T/C under setting [8] is 87 % of control.

Consider `Cc1cccc(NS(=O)(=O)c2ccc(Cl)cc2)c1C`, for which the T/C runs as follows: under setting [6], 109 % of control; (dose: 100.0 mg/kg/injection, schedule: Q04DX003 (ip), vehicle: Klucel (hydroxypropylcellulose) (HPC)) 96 % of control; under setting [7], 105 % of control; (dose: 200.0 mg/kg/injection, schedule: Q04DX003 (ip), vehicle: Klucel (hydroxypropylcellulose) (HPC)) 94 % of control; under setting [8], 94 % of control; (dose: 400.0 mg/kg/injection, schedule: Q04DX003 (ip), vehicle: Klucel (hydroxypropylcellulose) (HPC)) 103 % of control.

For the compound `CCOC(=O)C(C=O)(NC(=O)c1ccccc1)OCC` (centres undefined), the T/C is, setting by setting: under setting [9], 94 % of control; under setting [10], 101 % of control; under setting [11], 105 % of control.

With `O=C1NC(=O)C(F)C(O)N1` (centres undefined), the T/C reads like this: (dose: 5.0 mg/kg/injection, schedule: Q01DX001 (ip), vehicle: saline) 102 % of control; (dose: 10.0 mg/kg/injection, schedule: Q01DX001 (ip), vehicle: saline) 101 % of control; (dose: 20.0 mg/kg/injection, schedule: Q01DX001 (ip), vehicle: saline) 96 % of control; (dose: 40.0 mg/kg/injection, schedule: Q01DX001 (ip), vehicle: saline) 101 % of control; (dose: 80.0 mg/kg/injection, schedule: Q01DX001 (ip), vehicle: saline) 108 % of control.

Turning to `CCCCCCCCCCCCC(=O)N(CC)CC`, the T/C is 87 % of control (dose: 100.0 mg/kg/injection, schedule: Q04DX002 (ip), vehicle: Klucel (hydroxypropylcellulose) (HPC)); 94 % of control under setting [4]; 94 % of control under setting [5].

Consider `CC(=O)N(c1ccncc1)c1ccc(NC(=O)c2ccc(N3C(=O)c4ccccc4C3=O)cc2[N+](=O)[O-])cc1`, for which the T/C is 93 % of control and 102 % of control (dose: 25.0 mg/kg/injection, schedule: Q04DX002 (ip), vehicle: saline with Tween-80); 96 % of control and 88 % of control under setting [3].

Regarding `Cc1cc([N+](=O)[O-])c(C)cc1NC(=O)c1ccccc1`, the T/C is 91 % of control under setting [12], 92 % of control under setting [13] and 94 % of control under setting [14].

Take `CCCCC(=O)N/N=C/c1cccc(OC)c1OC`: the T/C is 92 % of control under setting [12], 92 % of control under setting [13] and 101 % of control under setting [14].

Regarding `O=C(O)CCCC1CCCCc2ccccc21` (centres undefined), the T/C is, setting by setting: (dose: 100.0 mg/kg/injection, schedule: Q04DX003 (ip), vehicle: acetone) 103 % of control; (dose: 200.0 mg/kg/injection, schedule: Q04DX003 (ip), vehicle: acetone) 100 % of control; (dose: 400.0 mg/kg/injection, schedule: Q04DX003 (ip), vehicle: acetone) 110 % of control.

Regarding `Oc1ccc(-c2nnc(-c3ccccc3)nn2)cc1`, the T/C reads like this: (dose: 100.0 mg/kg/injection, schedule: Q04DX003 (ip), vehicle: gum acacia) 104 % of control; (dose: 200.0 mg/kg/injection, schedule: Q04DX003 (ip), vehicle: gum acacia) 95 % of control; (dose: 400.0 mg/kg/injection, schedule: Q04DX003 (ip), vehicle: gum acacia) 95 % of control.

`C[N+](C)(CCCCCCCCCC[N+](C)(C)Cc1ccccc1)Cc1ccccc1`: the T/C (dose: 1.5 mg/kg/injection, schedule: Q01DX009 (ip), vehicle: saline) was 106 % of control; the T/C (dose: 1.5 mg/kg/injection, schedule: Q04DX003 (ip), vehicle: saline) is 95 % of control; the T/C (dose: 3.0 mg/kg/injection, schedule: Q01DX009 (ip), vehicle: saline) is 101 % of control; the T/C (dose: 3.0 mg/kg/injection, schedule: Q04DX003 (ip), vehicle: saline) is 97 % of control; the T/C (dose: 6.0 mg/kg/injection, schedule: Q01DX009 (ip), vehicle: saline) is 93 % of control; the T/C (dose: 6.0 mg/kg/injection, schedule: Q04DX003 (ip), vehicle: saline) is 95 % of control.

As to `CC(C)(C)NC1CCCC1Cl` (centres undefined), the T/C is 106 % of control under setting [1] and 102 % of control under setting [2].

Regarding `COC(=O)C(I)C(OC)c1ccccc1` (centres undefined), the T/C runs as follows: under setting [9], 98 % of control; under setting [10], 96 % of control; under setting [11], 95 % of control.

(Values after PubChem BioAssay AID248 (DTP/NCI, 2004).)
